Active and inactive are the calls of the source. The calls are words filed in the database; no cut-off is given here.
Experiments:
A549 = assay: cells; conditions: Homo sapiens, A549, 72 h
Description: Antiproliferative activity against human A549 cells after 72 hrs by SRB assay

SNU-638 = assay: Antiproliferative activity against human SNU638 cells after 72 hrs by SRB assay; conditions: SNU-638, 72 h
HCT-116 = assay: cells; conditions: Homo sapiens, HCT-116, 72 h
MDA-MB-231 = assay: Antiproliferative activity against human MDA-MB-231 cells after 72 hrs by SRB assay; conditions: MDA-MB-231, 72 h
SK-HEP1 = assay: Antiproliferative activity against human SKHEP1 cells after 72 hrs by SRB assay; conditions: SK-HEP1, 72 h
[1] = molecular target: Phosphatidylinositol 4,5-bisphosphate 3-kinase catalytic subunit beta isoform (Homo sapiens, UniProt P42338); assay: Inhibition of PI3Kbeta (unknown origin) using PIP2 as substrate by HTRF […] assay
HUVEC = assay: Cytotoxicity against HUVEC after 72 hrs by SRB assay; conditions: Homo sapiens
[2] = molecular target: Phosphatidylinositol 4,5-bisphosphate 3-kinase catalytic subunit gamma isoform (Homo sapiens, UniProt P48736); assay: Inhibition of N-terminal His6-tagged recombinant full-length human PI3Kgamma expressed in baculovirus infected Sf21 insect cells using PIP2 as substrate by HTRF […] assay
[3] = molecular target: PI3-kinase p110-alpha/p85-alpha (Homo sapiens, UniProt P42336); assay: Inhibition of N-terminal His6-tagged recombinant full-length human p110alpha/untagged recombinant full length human p85alpha expressed in baculovirus infected Sf21 insect cells using PIP2 as substrate by HTRF […] assay
[4] = molecular target: PI3-kinase p110-delta/p85-alpha (Homo sapiens, UniProt O00329); assay: Inhibition of p110delta/p85alpha (unknown origin) using PIP2 as substrate by HTRF […] assay; assay type: protein-complex assay
Homo sapiens [5] = species: Homo sapiens; assay: Inhibition of PI3K in human HCT116 cells assessed as reduction in Akt phosphorylation at Ser473 residue after 24 hrs by Western blot analysis; assay type: cell-based
Homo sapiens [6] = species: Homo sapiens; assay: Inhibition of PI3K in human HCT116 cells assessed as reduction in Akt phosphorylation at Ser473 residue at 0.5 uM after 24 hrs by Western blot analysis; assay type: cell-based

Chain of Phosphatidylinositol 4,5-bisphosphate 3-kinase catalytic subunit gamma isoform (P48736 whole entry, canonical isoform): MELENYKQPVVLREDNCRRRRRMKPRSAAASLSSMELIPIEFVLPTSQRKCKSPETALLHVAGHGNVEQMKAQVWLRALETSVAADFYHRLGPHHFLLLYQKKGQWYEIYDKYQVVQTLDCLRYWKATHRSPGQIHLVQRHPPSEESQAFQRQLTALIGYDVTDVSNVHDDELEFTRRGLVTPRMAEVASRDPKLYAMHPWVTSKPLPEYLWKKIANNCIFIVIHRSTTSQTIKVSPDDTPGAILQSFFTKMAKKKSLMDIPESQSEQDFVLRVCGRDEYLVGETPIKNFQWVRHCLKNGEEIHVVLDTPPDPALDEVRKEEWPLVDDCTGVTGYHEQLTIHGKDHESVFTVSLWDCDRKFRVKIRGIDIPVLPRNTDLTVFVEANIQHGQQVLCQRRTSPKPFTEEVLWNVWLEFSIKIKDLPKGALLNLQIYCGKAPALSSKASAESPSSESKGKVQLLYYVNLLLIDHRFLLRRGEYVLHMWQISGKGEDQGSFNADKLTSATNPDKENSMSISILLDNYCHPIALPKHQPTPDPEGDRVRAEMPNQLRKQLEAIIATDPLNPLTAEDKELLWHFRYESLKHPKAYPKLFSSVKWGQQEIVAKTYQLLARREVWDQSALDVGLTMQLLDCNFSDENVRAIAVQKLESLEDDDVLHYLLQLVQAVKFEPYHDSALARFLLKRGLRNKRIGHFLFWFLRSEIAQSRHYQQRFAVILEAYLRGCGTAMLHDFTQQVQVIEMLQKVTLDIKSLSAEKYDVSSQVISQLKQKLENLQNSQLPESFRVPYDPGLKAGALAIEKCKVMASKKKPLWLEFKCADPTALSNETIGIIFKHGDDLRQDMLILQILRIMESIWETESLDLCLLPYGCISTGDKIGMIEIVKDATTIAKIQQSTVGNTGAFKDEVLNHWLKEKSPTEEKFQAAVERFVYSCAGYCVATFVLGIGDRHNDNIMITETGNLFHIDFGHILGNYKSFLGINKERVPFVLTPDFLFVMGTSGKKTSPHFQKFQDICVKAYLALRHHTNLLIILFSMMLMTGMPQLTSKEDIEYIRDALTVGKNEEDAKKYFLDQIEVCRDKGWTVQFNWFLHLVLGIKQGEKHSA
Chain of Phosphatidylinositol 4,5-bisphosphate 3-kinase catalytic subunit beta isoform (P42338 whole entry, canonical isoform): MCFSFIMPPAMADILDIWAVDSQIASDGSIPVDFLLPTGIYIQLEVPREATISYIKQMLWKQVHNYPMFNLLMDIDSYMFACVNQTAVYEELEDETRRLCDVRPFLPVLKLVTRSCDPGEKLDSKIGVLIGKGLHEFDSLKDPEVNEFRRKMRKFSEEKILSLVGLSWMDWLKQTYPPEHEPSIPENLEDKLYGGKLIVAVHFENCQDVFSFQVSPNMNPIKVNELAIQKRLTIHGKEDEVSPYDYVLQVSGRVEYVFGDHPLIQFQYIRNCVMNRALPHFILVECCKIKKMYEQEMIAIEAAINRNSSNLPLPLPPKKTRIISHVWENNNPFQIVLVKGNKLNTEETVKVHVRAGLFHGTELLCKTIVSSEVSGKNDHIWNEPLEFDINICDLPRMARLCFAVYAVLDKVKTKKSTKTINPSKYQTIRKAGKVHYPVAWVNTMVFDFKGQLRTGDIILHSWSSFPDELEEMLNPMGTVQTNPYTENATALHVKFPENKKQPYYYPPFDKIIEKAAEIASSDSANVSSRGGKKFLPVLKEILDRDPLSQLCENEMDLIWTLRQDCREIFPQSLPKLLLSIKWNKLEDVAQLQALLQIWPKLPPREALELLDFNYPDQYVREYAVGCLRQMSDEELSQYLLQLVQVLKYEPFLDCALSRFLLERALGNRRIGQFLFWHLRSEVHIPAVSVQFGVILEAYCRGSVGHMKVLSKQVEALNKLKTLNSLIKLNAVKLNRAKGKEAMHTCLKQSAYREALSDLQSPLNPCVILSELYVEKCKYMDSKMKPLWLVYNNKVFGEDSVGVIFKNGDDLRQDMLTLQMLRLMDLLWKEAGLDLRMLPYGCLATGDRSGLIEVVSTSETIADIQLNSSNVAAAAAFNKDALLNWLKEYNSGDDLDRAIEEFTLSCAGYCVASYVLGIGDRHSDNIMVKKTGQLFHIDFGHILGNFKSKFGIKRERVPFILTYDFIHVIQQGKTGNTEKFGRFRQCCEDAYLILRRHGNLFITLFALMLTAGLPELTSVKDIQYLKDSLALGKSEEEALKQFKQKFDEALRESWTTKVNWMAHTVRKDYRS
Chain of PI3-kinase p110-alpha/p85-alpha (P27986 whole entry): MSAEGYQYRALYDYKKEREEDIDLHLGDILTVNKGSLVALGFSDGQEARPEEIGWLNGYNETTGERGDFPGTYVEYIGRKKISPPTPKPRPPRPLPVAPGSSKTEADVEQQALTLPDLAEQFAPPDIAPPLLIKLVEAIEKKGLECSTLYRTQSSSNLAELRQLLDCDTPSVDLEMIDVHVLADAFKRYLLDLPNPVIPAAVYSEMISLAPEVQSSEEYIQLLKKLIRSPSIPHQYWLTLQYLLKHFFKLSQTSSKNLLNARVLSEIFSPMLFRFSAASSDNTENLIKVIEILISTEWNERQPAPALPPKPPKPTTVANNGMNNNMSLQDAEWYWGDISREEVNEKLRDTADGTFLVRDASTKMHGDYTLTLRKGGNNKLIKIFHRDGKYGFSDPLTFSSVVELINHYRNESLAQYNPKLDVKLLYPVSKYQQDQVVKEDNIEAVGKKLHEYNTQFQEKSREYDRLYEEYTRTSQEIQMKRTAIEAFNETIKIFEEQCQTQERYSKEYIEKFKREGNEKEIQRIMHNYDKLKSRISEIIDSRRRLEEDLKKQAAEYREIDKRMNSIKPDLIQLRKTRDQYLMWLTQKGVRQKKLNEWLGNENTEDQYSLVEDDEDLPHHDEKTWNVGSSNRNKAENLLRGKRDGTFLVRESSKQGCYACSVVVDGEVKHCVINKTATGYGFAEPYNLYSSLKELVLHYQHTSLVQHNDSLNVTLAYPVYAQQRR
Chain of PI3-kinase p110-alpha/p85-alpha (P42336 whole entry): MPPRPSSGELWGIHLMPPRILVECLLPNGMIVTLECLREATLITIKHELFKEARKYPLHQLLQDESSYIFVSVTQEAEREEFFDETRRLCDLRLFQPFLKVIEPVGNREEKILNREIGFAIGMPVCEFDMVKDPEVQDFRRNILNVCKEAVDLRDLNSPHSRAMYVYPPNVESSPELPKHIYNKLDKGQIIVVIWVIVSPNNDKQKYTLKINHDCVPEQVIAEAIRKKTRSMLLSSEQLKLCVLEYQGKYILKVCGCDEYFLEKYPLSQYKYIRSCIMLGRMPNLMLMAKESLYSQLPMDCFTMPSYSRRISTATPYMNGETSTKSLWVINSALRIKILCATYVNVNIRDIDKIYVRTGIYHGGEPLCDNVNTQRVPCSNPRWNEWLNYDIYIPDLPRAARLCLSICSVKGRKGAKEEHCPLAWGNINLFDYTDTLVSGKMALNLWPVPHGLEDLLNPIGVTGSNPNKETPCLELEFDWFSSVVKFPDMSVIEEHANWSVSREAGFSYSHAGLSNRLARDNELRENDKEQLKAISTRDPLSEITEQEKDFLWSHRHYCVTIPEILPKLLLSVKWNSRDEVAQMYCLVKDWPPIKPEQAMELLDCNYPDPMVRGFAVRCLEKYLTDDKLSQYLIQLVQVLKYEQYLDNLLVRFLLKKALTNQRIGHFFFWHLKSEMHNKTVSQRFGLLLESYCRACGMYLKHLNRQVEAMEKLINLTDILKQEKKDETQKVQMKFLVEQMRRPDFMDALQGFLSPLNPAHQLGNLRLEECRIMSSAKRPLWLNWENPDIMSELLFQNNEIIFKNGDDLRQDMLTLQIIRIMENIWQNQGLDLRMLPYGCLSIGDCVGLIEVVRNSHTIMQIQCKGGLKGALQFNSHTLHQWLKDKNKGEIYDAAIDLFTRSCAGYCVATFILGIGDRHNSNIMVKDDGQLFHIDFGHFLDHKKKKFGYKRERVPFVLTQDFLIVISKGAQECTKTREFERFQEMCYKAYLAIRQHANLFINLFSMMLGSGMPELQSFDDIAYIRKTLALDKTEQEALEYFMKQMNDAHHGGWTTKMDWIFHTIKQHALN
Chain of PI3-kinase p110-delta/p85-alpha (P27986 whole entry): as the sequence (P27986 whole entry) above
Chain of PI3-kinase p110-delta/p85-alpha (O00329 whole entry): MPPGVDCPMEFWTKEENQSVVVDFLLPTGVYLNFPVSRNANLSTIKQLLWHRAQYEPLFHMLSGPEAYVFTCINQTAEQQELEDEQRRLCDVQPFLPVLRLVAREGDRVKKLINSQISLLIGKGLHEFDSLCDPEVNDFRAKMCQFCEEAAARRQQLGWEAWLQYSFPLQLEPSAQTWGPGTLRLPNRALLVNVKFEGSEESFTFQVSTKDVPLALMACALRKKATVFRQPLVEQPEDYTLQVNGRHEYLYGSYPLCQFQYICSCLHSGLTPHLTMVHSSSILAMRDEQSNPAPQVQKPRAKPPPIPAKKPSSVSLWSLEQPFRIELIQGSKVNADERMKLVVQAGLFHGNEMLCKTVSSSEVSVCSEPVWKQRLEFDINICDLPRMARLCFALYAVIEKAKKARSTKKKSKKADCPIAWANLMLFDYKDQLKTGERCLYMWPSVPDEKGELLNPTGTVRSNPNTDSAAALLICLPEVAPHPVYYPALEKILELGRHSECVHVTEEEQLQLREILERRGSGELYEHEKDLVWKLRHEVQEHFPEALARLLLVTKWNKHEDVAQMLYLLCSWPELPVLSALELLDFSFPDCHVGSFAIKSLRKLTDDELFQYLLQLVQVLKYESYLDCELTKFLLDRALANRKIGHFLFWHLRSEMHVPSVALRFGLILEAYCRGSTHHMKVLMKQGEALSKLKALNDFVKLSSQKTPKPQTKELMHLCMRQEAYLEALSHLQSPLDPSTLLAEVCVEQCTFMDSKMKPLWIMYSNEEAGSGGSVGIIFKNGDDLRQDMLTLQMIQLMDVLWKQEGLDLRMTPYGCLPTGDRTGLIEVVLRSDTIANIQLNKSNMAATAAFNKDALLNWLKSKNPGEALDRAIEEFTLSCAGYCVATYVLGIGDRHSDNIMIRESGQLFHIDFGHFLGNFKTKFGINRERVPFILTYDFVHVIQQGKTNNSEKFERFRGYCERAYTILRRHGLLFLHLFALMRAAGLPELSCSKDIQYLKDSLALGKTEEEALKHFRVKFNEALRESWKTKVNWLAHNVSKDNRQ

| IC50 (A549) | IC50 (SNU-638) | IC50 (HCT-116) | IC50 (MDA-MB-231) | IC50 (SK-HEP1) | IC50 [1] | IC50 [2] | IC50 [3] | IC50 [4] | SMILES | IC50 (HUVEC) | inhibition (Homo sapiens [5]) | inhibition (Homo sapiens [6]) |
| --- | --- | --- | --- | --- | --- | --- | --- | --- | --- | --- | --- | --- |
| 1620 nM | 1390 nM | 1230 nM | 1450 nM | 2050 nM |  |  |  |  | COc1ncc(-c2ccc3ncc(C(=O)N4CCC(OC(=O)c5ccccc5)CC4)n3c2)cc1NS(=O)(=O)c1ccc(F)cc1F |  |  |  |
| 100 nM | 280 nM | 200 nM | 500 nM | 600 nM | 108 nM | 116 nM | 6.5 nM | 69 nM | COc1ncc(-c2ccc3ncn(CCCN4CCOCC4)c(=O)c3c2)cc1NS(=O)(=O)c1ccc(F)cc1F | 8.97 µM |  |  |
| 7600 nM | 19700 nM | 2230 nM | 2150 nM | 11500 nM |  |  |  |  | COc1ncc(-c2ccc3ncn(CCCCCC(=O)N4CCOCC4)c(=O)c3c2)cc1NS(=O)(=O)c1ccc(F)cc1F |  |  |  |
| 200 nM | 250 nM | 800 nM | 11700 nM | > 20000 nM |  |  |  |  | COc1ncc(-c2ccc3ncn(CCCn4ccnc4)c(=O)c3c2)cc1NS(=O)(=O)c1ccc(F)cc1F |  |  |  |
| 100 nM | 300 nM | 820 nM | 120 nM | 1400 nM |  |  |  |  | CCOC(=O)Cn1cnc2ccc(-c3cnc(OC)c(NS(=O)(=O)c4ccc(F)cc4F)c3)cc2c1=O |  |  |  |
| 2540 nM | > 20000 nM | 1110 nM | 1830 nM | 2250 nM |  |  |  |  | COc1ncc(-c2ccc3ncn(CCCCC(=O)N4CCOCC4)c(=O)c3c2)cc1NS(=O)(=O)c1ccc(F)cc1F |  |  |  |
| > 20000 nM | 15900 nM | 1300 nM | 150 nM | 300 nM |  |  |  |  | CCOC(=O)c1cc2cc(-c3cnc(OC)c(NS(=O)(=O)c4ccc(F)cc4)c3)ccc2[nH]1 |  |  |  |
| 480 nM | 270 nM | 490 nM | 630 nM | 790 nM |  |  |  |  | COc1ncc(-c2ccc3ncc(C(=O)N4CCC(O)CC4)n3c2)cc1NS(=O)(=O)c1ccc(F)cc1F |  |  |  |
| 1150 nM | 1460 nM | 1310 nM | 370 nM | 750 nM |  |  |  |  | COc1ncc(-c2ccc3ncc(C(=O)O)n3c2)cc1NS(=O)(=O)c1ccc(F)cc1F |  |  |  |
| 3560 nM | 510 nM | 4940 nM | 2320 nM | 830 nM |  |  |  |  | CCCCS(=O)(=O)Nc1cc(-c2ccc3ncc(C(=O)OCC)n3c2)cnc1OC |  |  |  |
| 570 nM | 2260 nM | 1360 nM | 150 nM | 810 nM |  |  |  |  | COc1ncc(-c2ccc3ncn(CCCn4ccccc4=O)c(=O)c3c2)cc1NS(=O)(=O)c1ccc(F)cc1F |  |  |  |
|  |  |  |  |  | 89 nM | 45 nM |  |  | COc1ncc(-c2ccc3ncc(C(=O)NCCN4CCOCC4)n3c2)cc1NS(=O)(=O)c1ccc(F)cc1F |  | Dose-dependent effect |  |
| 300 nM | 360 nM | 90 nM | 120 nM | 300 nM |  |  |  |  | CCOC(=O)c1cnc2ccc(-c3cnc(OC)c(NS(=O)(=O)c4ccc(F)cc4F)c3)cn12 |  |  |  |
| 510 nM | > 20000 nM | 640 nM | 530 nM | > 20000 nM |  |  |  |  | CCOC(=O)c1cnc2ccc(-c3cnc(OC)c(NS(=O)(=O)c4ccc(F)cc4)c3)cn12 |  |  |  |
| 260 nM | 680 nM | 540 nM | 760 nM | 1090 nM | 59 nM | 104 nM |  |  | CCOC(=O)c1cnc2ccc(-c3cncc(NS(=O)(=O)c4ccccc4)c3)cn12 |  |  | Active |
| 200 nM | 360 nM | 4000 nM | > 20000 nM | > 20000 nM |  |  |  |  | COc1ncc(-c2ccc3ncn(CCCn4cccn4)c(=O)c3c2)cc1NS(=O)(=O)c1ccc(F)cc1F |  |  |  |
| > 20000 nM | > 20000 nM | > 20000 nM | > 20000 nM | > 20000 nM |  |  |  |  | CCOC(=O)c1cn2cc(-c3cnc(OC)c(NS(=O)(=O)c4ccc(F)cc4)c3)ccc2n1 |  |  |  |
| 230 nM | 90 nM | 320 nM | 190 nM | 170 nM |  |  |  |  | CCOC(=O)c1cnc2ccc(-c3cnc(OC)c(NS(C)(=O)=O)c3)cn12 |  |  |  |
| 500 nM | 490 nM | 310 nM | 420 nM | 980 nM |  |  |  |  | COc1ncc(-c2ccc3ncc(C(=O)NCc4ccncc4)n3c2)cc1NS(=O)(=O)c1ccc(F)cc1F |  |  |  |
| 500 nM | 300 nM | 100 nM | 300 nM | 400 nM | 106 nM | 37 nM | 3.8 nM | 101 nM | COc1ncc(-c2ccc3ncc(C(=O)NCCCN4CCOCC4)n3c2)cc1NS(=O)(=O)c1ccc(F)cc1F | 3.56 µM |  |  |
| 400 nM | 510 nM | 140 nM | 1800 nM | > 20000 nM |  |  |  |  | COc1ncc(-c2ccc3ncc(C(=O)NCCN(C)C)n3c2)cc1NS(=O)(=O)c1ccc(F)cc1F |  |  |  |

Reference: ChEMBL document CHEMBL4190317, “Design, synthesis, and biological evaluation of novel 3-substituted imidazo[1,2-a]pyridine and quinazolin-4(3H)-one derivatives as PI3Kα inhibitors” (Eur J Med Chem, 2017)
